Measurements: patent publication US9434686B2, “Deacetylase inhibitors and uses thereof” (President and Fellows of Harvard College, priority 2008, dated 2016)
“And” between values parts separate entries of the source, which are not always exact repeats. Equal values may be shown once. Read-outs that look alike come from different tables or passages of the source.

Columns and labels:
[1] = system: human multiple myeloma cells; experiment: Cell proliferation (Cell TiterGlo) synergy of HDAC inhibitor with bortezomib; assay type: cell-based; conditions: two cultures of human multiple myeloma cells, bortezomib 0, 2.5 nM, 5.0 nM
Protocol: FIG. 7. […] Synergistic effects on cell proliferation were determined by varying concentrations of each HDAC inhibitor in the presence of varied concentrations of the proteasome inhibitor, bortezomib. Two cultures of human multiple myeloma cells were used for this study. Data presented are the IC50 data for the HDAC inhibitor studied (first column) in the presence of increasing concentrations of bortezomib (0, 2.5 nM, or 5.0 nM). The measurement of cell proliferation used is the Cell TiterGlo assay (Promega), which uses bioluminescence to report on ATP content in cultured cells.

[2] = Pharmacokinetics of WT-161 in CD-1 mice after intravenous administration (plasma, LC-MS/MS); assay type: in vivo
Protocol: WT-III-161 (Wt: 458.55 for free base) was dissolved in 25% DMSO, 25% Cremophor EL, and 50% saline to yield final concentration at 2 mg/mL for intravenous administration (pH=6-7). The solution was clear and light yellow, and the concentration of WT-III-161 in it was confirmed by HPLC method with an accuracy of 116.92% (Table I).
Study design, animal selection, handling and treatment were in accordance with the Shanghai Medicilon Inc. study protocol (Shanghai Medicilon Inc Study No. BRD0701). Male CD0-1 mice (body weight 23 g to 27 g) were used in this study. Before the pharmacokinetic studies, animals were randomly assigned to the treatment groups (3 animals per timepoint). Ten additional mice were used to collect plasma for calibration curves.
[…] All the samples and the dose formulation were stored at −20° C. until bioanalysis or transportation to sponsor.
The concentrations of WT-161 in plasma were determined using a high pressure liquid chromatography/mass spectrometry (LC-MS/MS) method.
The LC system comprised an Aligent liquid chromatograph equipped with an isocratic pump (1100 series), an autosampler (1100 series) and a degasser (1100 series). Mass spectrometric analysis was performed using an API3000 (triple quadrupole) instrument from AB Inc (Canada) with an ESI interface. The data acquisition and control system were created using Analyst 1.4 software from ABI Inc. Acetonitrile and methanol were HPLC grade. All other solvents and chemicals were analytical grade or better.
Pharmacokinetic software DAS 2.0 (Gaosi Data Analysis Inc., Wuhn, China) was used.
Chromatographic conditions: ColumnL Synergi Fusion-RP, 4 μm (150 mm×2.0 mm); Mobile phase: 0.1% formic acid:methanol:acetonitrile (5:90:5); Elution rate: 350 μL/min; Column temperature: 25° C.; Injection volume: 2 μL.
Scan type: positive MRM; Ion Source: Turbo spray; Ionization mode: ESI; Nebulize gas: 8 L/min; Curtain gas: 8 L/min; Collision gas: 4 L/min; Ionspray voltage: 5000 V; Temperature: 500° C.
Plasma samples (0.1 mL) were transferred to Eppendorff tubes, then 20 μL of methanol, 500 μL IS solutions (50 ng/mL) were added to it. After vortexing for 1 minute and centrifuging for 5 min at 15,000 rpm, 2 μL of supernatant was injected onto the LC-MS/MS.
The concentration in plasma below the limit of quantitation (LOQ=5 ng/mL) were designated as zero. The pharmacokinetic data analysis was performed using noncompartmental analysis modules in DAS 2.0.

[3] = target: T1, HDAC6 (Homo sapiens, UniProt Q9UBN7); experiment: High content acetylation assay (AcTubulin vs AcHistone) in cultured cells; assay type: cell-based; conditions: dose-range, TDAC activity as surrogate for HDAC6 inhibition
T1 construct: endogenous in cells
T1 sequence (Q9UBN7 1-1215): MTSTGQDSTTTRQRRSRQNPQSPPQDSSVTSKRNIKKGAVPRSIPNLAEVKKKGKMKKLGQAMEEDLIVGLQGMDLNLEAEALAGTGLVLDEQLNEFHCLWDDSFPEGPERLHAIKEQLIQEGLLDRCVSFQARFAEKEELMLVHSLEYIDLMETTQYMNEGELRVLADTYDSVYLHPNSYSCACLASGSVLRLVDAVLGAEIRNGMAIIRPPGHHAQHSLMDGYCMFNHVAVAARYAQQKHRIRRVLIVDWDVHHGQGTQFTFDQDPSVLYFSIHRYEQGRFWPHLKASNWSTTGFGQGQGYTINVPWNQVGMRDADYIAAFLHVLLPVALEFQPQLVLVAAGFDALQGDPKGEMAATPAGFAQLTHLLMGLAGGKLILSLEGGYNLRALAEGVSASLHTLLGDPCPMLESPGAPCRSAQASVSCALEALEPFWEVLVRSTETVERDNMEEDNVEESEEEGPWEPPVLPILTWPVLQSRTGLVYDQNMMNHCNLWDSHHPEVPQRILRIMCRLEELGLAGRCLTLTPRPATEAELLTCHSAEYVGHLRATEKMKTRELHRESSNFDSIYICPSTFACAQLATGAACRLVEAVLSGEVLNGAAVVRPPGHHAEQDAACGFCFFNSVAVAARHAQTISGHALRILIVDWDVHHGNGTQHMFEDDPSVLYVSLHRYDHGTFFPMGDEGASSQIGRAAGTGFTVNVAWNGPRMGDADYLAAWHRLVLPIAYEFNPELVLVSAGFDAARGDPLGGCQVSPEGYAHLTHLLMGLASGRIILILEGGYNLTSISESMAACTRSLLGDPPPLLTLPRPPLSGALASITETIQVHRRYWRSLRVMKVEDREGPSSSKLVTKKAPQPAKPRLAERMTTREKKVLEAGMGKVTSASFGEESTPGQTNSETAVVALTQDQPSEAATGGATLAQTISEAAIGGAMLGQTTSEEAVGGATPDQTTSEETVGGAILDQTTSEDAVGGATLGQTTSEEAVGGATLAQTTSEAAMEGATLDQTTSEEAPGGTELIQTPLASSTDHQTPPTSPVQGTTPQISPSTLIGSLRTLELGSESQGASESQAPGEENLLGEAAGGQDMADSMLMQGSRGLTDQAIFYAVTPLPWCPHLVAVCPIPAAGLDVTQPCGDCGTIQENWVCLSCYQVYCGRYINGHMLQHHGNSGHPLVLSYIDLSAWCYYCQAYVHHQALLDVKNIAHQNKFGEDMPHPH
Protocol: FIG. 2. High-throughput, high-content, quantitative detection method for identifying HDAC inhibitors. Cells are seeded in 384-well plates (2,000 cells/well) and treated with test compound, fixed, and then stained with Hoechst (nuclei), primary anti-AcTubulin monoclonal antibody and anti-AcHistone polyclonal antibody, then with compatible fluorophore-conjugated secondary antibodies. After automated image acquisition a custom analysis script identifies and masks cells, then derives quantitative fluorescence data from FITC (AcTubulin) and rhodamine (AcHistone) channels (MetaXPress; Molecular Devices).
FIG. 3. WT-161 Induction of AcTubulin (Red) and AcHistone (Blue) by HCS. As described in FIG. 2, the high content acetylation assay was employed to determine the comparative induction of acetylated histones versus acetylated tubulin across a dose-range of WT-161.
FIG. 4. […] Dose-response data from FIG. 3 have been used to generate EC50 values of cellular histone and tubulin acetylation effects of WT-161. […] HDAC activity is used to indicate biological activity of proteins mediating histone deacetylation, as this is a cellular assay measuring global effects on acetylation. TDAC activity is a surrogate measurement for HDAC6 inhibition in cultured cells.

[4] = target: T1, HDAC6; experiment: HDAC biochemical (homogeneous) assay, inhibitory constants
Protocol: FIG. 5. HDAC Biochemical Assay Schema. 7-amino-4-methylcoumarin (7AMC) is linked by an amide bond to acetylated lysine in the context of an isoform-selective substate. Pictured here is a derived substrate for HDACs 1, 2, 3, and 6. HDAC hydrolyzes acetylated lysine, which is then a substrate for rapid trypsin digestion releasing 7AMC (shown in green) which is detected in real time by a fluorescence plate reader. Linear data captured after a pre-incubation phase (30 minutes) provides a kinetic assessment of deacetylase activity.
FIG. 6. […] Robust assay for HDACs 1, 2, 3, 5, 6, and 8 have been established.

[5] = male, mouse, CD-1 mice, IV 5 mg/kg, plasma

## O=C(CCCCCCC(=O)N/N=C/c1ccc(N(c2ccccc2)c2ccccc2)cc1)NO [WT-161]
[1]
  Synergy with bortezomib on cell proliferation: most pronounced synergy
[2]; 0.033 hr post-dose, IV 5 mg/kg, 5 mg/kg
  Concentration in plasma, individual mice 1-3: 13606.91 ng/mL and 27492.70 ng/mL and 14890.74 ng/mL
[2]; 0.083 hr post-dose, IV 5 mg/kg, 5 mg/kg
  Concentration in plasma, individual mice 1-3: 6082.36 ng/mL and 8591.87 ng/mL
[2]; 0.25 hr post-dose, IV 5 mg/kg, 5 mg/kg
  Concentration in plasma, individual mice 1-3: 1762.06 ng/mL and 1336.63 ng/mL
[2]; 0.5 hr post-dose, IV 5 mg/kg, 5 mg/kg
  Concentration in plasma, individual mice 1-3: 780.44 ng/mL and 1152.36 ng/mL
[2]; 1 hr post-dose, IV 5 mg/kg, 5 mg/kg
  Concentration in plasma, individual mice 1-3: 122.63 ng/mL and 57.74 ng/mL and 263.97 ng/mL
[2]; 2 hr post-dose, IV 5 mg/kg, 5 mg/kg
  Concentration in plasma, individual mice 1-3: 87.92 ng/mL and 114.00 ng/mL
[2]; 3 hr post-dose, IV 5 mg/kg, 5 mg/kg
  Concentration in plasma, individual mice 1-3: 25.12 ng/mL and 9.38 ng/mL and 14.37 ng/mL
[2]; 4 hr post-dose, IV 5 mg/kg, 5 mg/kg
  Concentration in plasma, individual mice 1-3: 74.08 ng/mL and 20.79 ng/mL and 7.37 ng/mL
[2]; 6 hr post-dose, IV 5 mg/kg, LOQ 5 ng/mL, 5 mg/kg
  Concentration in plasma, individual mice 1-3: BLQ and 6.57 ng/mL
[2]; 8 hr post-dose, IV 5 mg/kg, LOQ 5 ng/mL
  Concentration in plasma, individual mice 1-3: BLQ
[2]; 24 hr post-dose, IV 5 mg/kg, LOQ 5 ng/mL
  Concentration in plasma, individual mice 1-3: BLQ
[2]; CD-1 mice, IV bolus 5 mg/kg
  Systemic clearance as percent of mouse hepatic blood flow (5.40 L/hr/kg): 30.37%
[2]; male, CD-1, mouse, plasma, iv, 5 mg/kg, 0.033 hr post-dose, IV 5 mg/kg
  concentration at 0.033 hr: 18700 ng/mL
[2]; male, CD-1, mouse, plasma, iv, 5 mg/kg, 0.083 hr post-dose, IV 5 mg/kg, read-out: Concentration in plasma, Mean
  concentration at 0.083 hr: 8000 ng/mL
[2]; male, CD-1, mouse, plasma, iv, 5 mg/kg, 0.083 hr post-dose, IV 5 mg/kg, read-out: Concentration in plasma, individual mice 1-3
  concentration at 0.083 hr: 9330 ng/mL
[2]; male, CD-1, mouse, plasma, iv, 5 mg/kg, 0.25 hr post-dose, IV 5 mg/kg, read-out: Concentration in plasma, Mean
  concentration at 0.25 hr: 1760 ng/mL
[2]; male, CD-1, mouse, plasma, iv, 5 mg/kg, 0.25 hr post-dose, IV 5 mg/kg, read-out: Concentration in plasma, individual mice 1-3
  concentration at 0.25 hr: 2190 ng/mL
[2]; male, CD-1, mouse, plasma, iv, 5 mg/kg, 0.5 hr post-dose, IV 5 mg/kg, read-out: Concentration in plasma, Mean
  concentration at 0.5 hr: 956 ng/mL
[2]; male, CD-1, mouse, plasma, iv, 5 mg/kg, 0.5 hr post-dose, IV 5 mg/kg, read-out: Concentration in plasma, individual mice 1-3
  concentration at 0.5 hr: 934 ng/mL
[2]; male, CD-1, mouse, plasma, iv, 5 mg/kg, 1 hr post-dose, IV 5 mg/kg
  concentration at 1 hr: 148 ng/mL
[2]; male, CD-1, mouse, plasma, iv, 5 mg/kg, 2 hr post-dose, IV 5 mg/kg, read-out: Concentration in plasma, Mean
  concentration at 2 hr: 95.2 ng/mL
[2]; male, CD-1, mouse, plasma, iv, 5 mg/kg, 2 hr post-dose, IV 5 mg/kg, read-out: Concentration in plasma, individual mice 1-3
  concentration at 2 hr: 83.6 ng/mL
[2]; male, CD-1, mouse, plasma, iv, 5 mg/kg, 3 hr post-dose, IV 5 mg/kg
  concentration at 3 hr: 16.3 ng/mL
[2]; male, CD-1, mouse, plasma, iv, 5 mg/kg, 4 hr post-dose, IV 5 mg/kg
  concentration at 4 hr: 34.1 ng/mL
[2]; male, CD-1, mouse, plasma, iv, 5 mg/kg, 6 hr post-dose, IV 5 mg/kg, BLQ designated as zero, read-out: Concentration in plasma, Mean
  concentration at 6 hr: 4.15 ng/mL
[2]; male, CD-1, mouse, plasma, iv, 5 mg/kg, 6 hr post-dose, IV 5 mg/kg, LOQ 5 ng/mL, read-out: Concentration in plasma, individual mice 1-3
  concentration at 6 hr: 5.87 ng/mL
[2]; male, CD-1, mouse, plasma, iv, 5 mg/kg, CD-1 mice, IV 5 mg/kg, read-out: Cmax
  Cmax: 18700 ng/mL
[2]; male, CD-1, mouse, plasma, iv, 5 mg/kg, IV, nominal dose 5 mg/kg, read-out: Cmax (at 2 minutes after dosing)
  Cmax: 18700 ng/mL
[2]; male, mouse, plasma, CD-1 mice, IV 5 mg/kg
  Tmax: 1.8 min
[2]; male, mouse, plasma, CD-1 mice, IV 5 mg/kg, read-out: CLZ (systemic clearance) (converted)
  clearance: 27.3 mL/min/kg
[2]; male, mouse, plasma, CD-1 mice, IV 5 mg/kg, read-out: MRT(0-∞)
  MRT inf: 19.8 min
[2]; male, mouse, plasma, CD-1 mice, IV 5 mg/kg, read-out: T1/2z (half-life) (converted)
  half-life: 84.6 min
[2]; male, mouse, plasma, CD-1 mice, IV 5 mg/kg, read-out: VZ (volume of distribution at terminal phase)
  Vd: 3.33 L/kg
[2]; [5]
  AUC(0-inf): 3050 ng·h/mL
  AUC(0-t): 3020 ng·h/mL
[2]; mice, IV 5 mg/kg
  Tissue distribution: distributes well in tissues
  Volume of distribution as fold of total body water (0.73 L/kg): 4.56 fold
[3]
  Comparative induction of acetylated tubulin versus acetylated histones (cellular selectivity): Selective Inhibition of HDAC6
[4]
  Inhibitory constant (Ki) for HDAC6, in words: Potent inhibition of HDAC6
  Selectivity among HDACs 1, 2, 3, 5, 6, 8, in words: Selective Inhibition of HDAC6
